Assay results taken from patent US4156724A, “N-acylamino-alpha-arylacetamido cephalosporins and antibacterial compositions and methods containing them” (Sumitomo Chemical Company, Limited, priority 1974, dated 1979).
Converted amounts (≈) assume the structure as drawn.

Experiments:
Assay type in all cases: cell-based
[1] = test system: Staphylococcus aureus 209 P; assay: Minimum Inhibitory Concentration, Staphylococcus aureus 209 P; conditions: Staphylococcus aureus 209 P; for MIC: read-out: Minimum Inhibitory Concentration
Description: (§1) anti-microbial activity tests were carried out on the compounds obtained in the Examples.

[2] = test system: Staphylococcus aureus FS 289; assay: Minimum Inhibitory Concentration, Staphylococcus aureus FS 289; conditions: Staphylococcus aureus FS 289, strain resistant to penicillin; for MIC: FS289, read-out: Minimum Inhibitory Concentration
Description: as §1
*Staphylococcus aureus FS 289: strain resistant to penicillin

Escherichia coli NIHJ = assay: Minimum Inhibitory Concentration, Escherichia coli NIHJ; conditions: Escherichia coli NIHJ; for MIC: read-out: Minimum Inhibitory Concentration
Description: as §1

[3] = test system: Klebsiella pneumoniae 602; assay: Minimum Inhibitory Concentration, Klebsiella pneumoniae 602; conditions: for MIC: Klebsiella pneumoniae, 602, Klebsiella pneumoniae 602, read-out: Minimum Inhibitory Concentration; for Minimum Inhibitory Concentration: Klebsiella pneumoniae 602
Description: as §1

Proteus vulgaris HX 19 = assay: Minimum Inhibitory Concentration, Proteus vulgaris HX 19; conditions: Proteus vulgaris HX 19; for MIC: HX19, read-out: Minimum Inhibitory Concentration
Description: as §1

[4] = test system: Pseudomonas aeruginosa 104; assay: Minimum Inhibitory Concentration, Pseudomonas aeruginosa 104; conditions: Pseudomonas aeruginosa 104; for MIC: read-out: Minimum Inhibitory Concentration
Description: as §1

Serratia No. 72 = assay: Minimum Inhibitory Concentration, Serratia No. 72
Description: as §1

[5] = test system: Enterobacter aerogeneus No. 75; assay: Minimum Inhibitory Concentration, Enterobacter aerogeneus No. 75; conditions: Enterobacter aerogeneus No. 75; for MIC: read-out: Minimum Inhibitory Concentration
Description: as §1

MIC [1] | MIC [2] | MIC (Escherichia coli NIHJ) | MIC [3] | MIC (Proteus vulgaris HX 19) | MIC [4] | MIC (Serratia No. 72) | MIC [5] | Structure (SMILES) | Minimum Inhibitory Concentration [1] | Minimum Inhibitory Concentration [2] | Minimum Inhibitory Concentration (Escherichia coli NIHJ) | Minimum Inhibitory Concentration [3] | Minimum Inhibitory Concentration (Proteus vulgaris HX 19) | Minimum Inhibitory Concentration [4] | Minimum Inhibitory Concentration (Serratia No. 72) | Minimum Inhibitory Concentration [5]
1.56 µg/mL (≈ 2.29 µM) | 6.25 µg/mL (≈ 9.18 µM) | 1.56 µg/mL (≈ 2.29 µM) | 3.13 µg/mL (≈ 4.6 µM) | 0.1 µg/mL (≈ 0.147 µM) | 3.13 µg/mL (≈ 4.6 µM) | 12.5 µg/mL (≈ 18.4 µM) | 3.13 µg/mL (≈ 4.6 µM) | Nc1ccc(C(NC(=O)c2cnc3cccnc3c2O)C(=O)NC2C(=O)N3C(C(=O)O)=C(CSc4nnc(CO)s4)CSC23)cc1 (stereo not drawn) [Example 81] |  |  |  |  |  |  |  | 
0.78 µg/mL (≈ 1.12 µM) | 6.25 µg/mL (≈ 8.98 µM) | 3.13 µg/mL (≈ 4.5 µM) | 3.13 µg/mL (≈ 4.5 µM) | 0.39 µg/mL (≈ 0.56 µM) | 6.25 µg/mL (≈ 8.98 µM) | 25 µg/mL (≈ 35.9 µM) | 6.25 µg/mL (≈ 8.98 µM) | O=C(O)C1=C(CSc2ccc(O)nn2)CSC2C(NC(=O)[C@H](NC(=O)c3cnc4cccnc4c3O)c3ccc(O)c(Cl)c3)C(=O)N12 (stereo partly drawn) [Example 149] |  |  |  |  |  |  |  | 
0.78 µg/mL (≈ 1.13 µM) | 6.25 µg/mL (≈ 9.02 µM) | 3.13 µg/mL (≈ 4.52 µM) | 1.56 µg/mL (≈ 2.25 µM) | 0.2 µg/mL (≈ 0.289 µM) | 3.13 µg/mL (≈ 4.52 µM) | 12.5 µg/mL (≈ 18 µM) | 3.13 µg/mL (≈ 4.52 µM) | CN(C)c1ccc2ncc(C(=O)NC(C(=O)NC3C(=O)N4C(C(=O)O)=C(CSc5nnnn5C)CSC34)c3ccc(O)cc3)c(O)c2n1 (stereo not drawn) [Example 166] |  |  |  |  |  |  |  | 
0.39 µg/mL (≈ 0.635 µM) | 6.25 µg/mL (≈ 10.2 µM) | 6.25 µg/mL (≈ 10.2 µM) | 6.25 µg/mL (≈ 10.2 µM) | 0.1 µg/mL (≈ 0.163 µM) | 6.25 µg/mL (≈ 10.2 µM) | 50 µg/mL (≈ 81.5 µM) | 12.5 µg/mL (≈ 20.4 µM) | Cc1nnc(SCC2=C(C(=O)O)N3C(=O)C(NC(=O)C(NC(=O)c4cnccc4O)c4ccc(N)cc4)C3SC2)s1 (stereo not drawn) [Example 56] |  |  |  |  |  |  |  | 
0.78 µg/mL (≈ 1.13 µM) | 6.25 µg/mL (≈ 9.03 µM) | 1.56 µg/mL (≈ 2.26 µM) | 3.13 µg/mL (≈ 4.52 µM) | 0.1 µg/mL (≈ 0.145 µM) | 3.13 µg/mL (≈ 4.52 µM) | 12.5 µg/mL (≈ 18.1 µM) | 6.25 µg/mL (≈ 9.03 µM) | CN(C)c1ccc2ncc(C(=O)NC(C(=O)NC3C(=O)N4C(C(=O)O)=C(CSc5nnnn5C)CSC34)c3cccc(N)c3)c(O)c2n1 (stereo not drawn) [Example 74] |  |  |  |  |  |  |  | 
0.39 µg/mL (≈ 0.619 µM) | 6.25 µg/mL (≈ 9.93 µM) | 6.25 µg/mL (≈ 9.93 µM) | 6.25 µg/mL (≈ 9.93 µM) | 0.2 µg/mL (≈ 0.318 µM) | 6.25 µg/mL (≈ 9.93 µM) | 50 µg/mL (≈ 79.4 µM) | 12.5 µg/mL (≈ 19.9 µM) | Nc1ccc(C(NC(=O)c2cnccc2O)C(=O)NC2C(=O)N3C(C(=O)O)=C(CSc4nnc(CO)s4)CSC23)cc1 (stereo not drawn) [Example 83] |  |  |  |  |  |  |  | 
1.56 µg/mL (≈ 2.15 µM) | 12.5 µg/mL (≈ 17.2 µM) | 6.25 µg/mL (≈ 8.61 µM) | 6.25 µg/mL (≈ 8.61 µM) | 0.78 µg/mL (≈ 1.07 µM) | 6.25 µg/mL (≈ 8.61 µM) | 50 µg/mL (≈ 68.9 µM) | 12.5 µg/mL (≈ 17.2 µM) | Cc1nnc(SCC2=C(C(=O)O)N3C(=O)C(NC(=O)C(NC(=O)c4cnc5nc(N(C)C)ncc5c4O)c4ccc(O)c(O)c4)C3SC2)s1 (stereo not drawn) [Example 156] |  |  |  |  |  |  |  | 
0.78 µg/mL (≈ 1.1 µM) | 3.13 µg/mL (≈ 4.42 µM) | 3.13 µg/mL (≈ 4.42 µM) | 1.56 µg/mL (≈ 2.2 µM) | 0.1 µg/mL (≈ 0.141 µM) | 3.13 µg/mL (≈ 4.42 µM) | 12.5 µg/mL (≈ 17.7 µM) | 3.13 µg/mL (≈ 4.42 µM) | Cc1nnc(SCC2=C(C(=O)O)N3C(=O)[C@@H](NC(=O)[C@H](NC(=O)c4cnc5cccnc5c4O)c4ccc(NC(N)=O)cc4)[C@H]3SC2)s1 [Example 20] |  |  |  |  |  |  |  | 
 |  |  |  |  |  |  |  | CN(C)c1ccc2ncc(C(=O)NC(C(=O)NC3C(=O)N4C(C(=O)[O-])=C(CSc5nnnn5C)CSC34)c3ccc(NC(N)=O)cc3)c(O)c2n1.[Na+] (stereo not drawn) [Example 29] | 0.78 µg/mL | 6.25 µg/mL | 1.56 µg/mL | 1.56 µg/mL | 0.2 µg/mL | 3.13 µg/mL | 12.5 µg/mL | 3.13 µg/mL
 |  |  |  |  |  |  |  | CSc1cnc2c(O)c(C(=O)NC(C(=O)NC3C(=O)N4C(C(=O)[O-])=C(COC(C)=O)CSC34)c3cccc(O)c3)cnc2n1.[Na+] (stereo not drawn) [Example 140] | 0.78 µg/mL | 6.25 µg/mL | 3.13 µg/mL | 6.25 µg/mL | 1.56 µg/mL | 6.25 µg/mL | 50 µg/mL | 12.5 µg/mL
0.78 µg/mL (≈ 1.2 µM) | 6.25 µg/mL (≈ 9.62 µM) | 6.25 µg/mL (≈ 9.62 µM) | 12.5 µg/mL (≈ 19.2 µM) | 0.39 µg/mL (≈ 0.6 µM) | 6.25 µg/mL (≈ 9.62 µM) | 50 µg/mL (≈ 77 µM) | 12.5 µg/mL (≈ 19.2 µM) | CC(=O)OCC1=C(C(=O)O)N2C(=O)[C@@H](NC(=O)[C@H](NC(=O)c3cnc4nc(C)ccc4c3O)c3ccc(NC(N)=O)cc3)[C@H]2SC1 [Example 8] |  |  |  |  |  |  |  | 
1.56 µg/mL (≈ 2.35 µM) | 6.25 µg/mL (≈ 9.43 µM) | 6.25 µg/mL (≈ 9.43 µM) | 1.56 µg/mL (≈ 2.35 µM) | 0.1 µg/mL (≈ 0.151 µM) | 6.25 µg/mL (≈ 9.43 µM) | 50 µg/mL (≈ 75.4 µM) | 12.5 µg/mL (≈ 18.9 µM) | Cc1ccc2c(O)c(C(=O)NC(C(=O)NC3C(=O)N4C(C(=O)O)=C(CSc5nnn(C)n5)CSC34)c3cccc(N)c3)cnc2n1 (stereo not drawn) [Example 63] |  |  |  |  |  |  |  | 
